What is called EC50 is the concentration at which the effect is half-maximal. Usually IC50 stands for the concentration at which inhibition is half-maximal.

The text below walks through data of patent US20250032631A1, “ANTI-SEZ6 ANTIBODY DRUG CONJUGATES” (AbbVie Inc., priority 2022, published 2025).

Format in all cases: cell-based
The subject of test [1] is Calu-6 cells (lung adenocarcinoma). The test can be described thus: Cell proliferation (CellTiter-Glo luminescence), Calu-6. Conditions: Homo sapiens, Calu-6, read-out: EC50, TOP1i compound potency, Calu-6. On the procedure: The effect of TOP1i drugs on cell viability was assessed by monitoring ATP presence for metabolically active cells. Proliferation of Calu-6 cells (lung adenocarcinoma) and A375 cells (malignant melanoma) were quantified using CellTiter-Glo® luminescence.

For test [2], the system named is A375 cells (malignant melanoma). The test can be described thus: Cell proliferation (CellTiter-Glo luminescence), A375. The following applies: Homo sapiens, A-375, read-out: EC50, TOP1i compound potency, A375. The text has this: Proliferation of Calu-6 cells (lung adenocarcinoma) and A375 cells (malignant melanoma) were quantified using CellTiter-Glo® luminescence.
(In general: Cellular ATP, detected with luciferase, serves as a proxy for viable cell number.)

Test [3] relates to NCI-H524. The test can be described thus: SCLC cell viability assay (CellTiter-Glo), NCI-H524. Conditions: Homo sapiens, 72 h; NCI-H524, 3 days; read-out: IC50, 50% cell growth inhibition. As to the method: (§1) SCLC cell lines NCI-H526 (“H526”), NCI-H524 (“H524”), NCI-H146 (“H146”), NCI-H1963 (“H1963”) and SW-1271 were obtained from the American Type Culture Collection (ATCC). COR-L95 cells were obtained from Millipore Sigma (#96020733). SBC-5 cells were obtained from the Japanese Collection of Research Bioresources Cell Bank (JCRB).
(§2) SCLC cell lines (shown in Table 2, column 1) were plated in white 384-well plates (Corning® 3765) at 1,000-2,000 cells/30 μl RPMI-1640 base media containing 10% heat-inactivated FBS (fetal bovine serum). Cell plates were incubated overnight at 37° C. in 5% CO2. Using a Tecan D300e Digital Dispenser, a dose response using a stock concentration of ADC or solution containing Example 1G and DMSO (dimethyl sulfoxide) was applied to the cells on day 0 and incubated for an additional 10 days (ADCs) or 3 days (Example 1G) at 37°° C. in 5% CO2. Samples were run in duplicate. Cell viability was assessed with the CellTiter-Glo™ Luminescent Cell Viability Assay (Promega, #G7570) according to the manufacturer's instructions, with the exception that the plates were shaken for 30 minutes prior to reading. Luminescence was read on the BioTek Synergy Neo2, and data was analyzed using GraphPad Prism software.

Test [4] concerns NCI-H526. Kind of test: SCLC cell viability assay (CellTiter-Glo), NCI-H526. Conditions: Homo sapiens, 72 h; NCI-H526, 3 days; read-out: IC50, 50% cell growth inhibition. As to the method:
as §1, §2

Test [5] deals with COR-L95. The test can be described thus: SCLC cell viability assay (CellTiter-Glo), COR-L95. The following applies: 72 h; COR-L95, 3 days; read-out: IC50, 50% cell growth inhibition. On the procedure: as §1, §2
Test [6] relates to NCI-H146. Kind of test: SCLC cell viability assay (CellTiter-Glo), NCI-H146. Conditions: Homo sapiens, 72 h; NCI-H146, 3 days; read-out: IC50, 50% cell growth inhibition. As to the method:
as §1, §2

The test system of test [7] is NCI-H1963. Kind of test: SCLC cell viability assay (CellTiter-Glo), NCI-H1963. Conditions: Homo sapiens, 72 h; NCI-H1963, 3 days; read-out: IC50, 50% cell growth inhibition. On the procedure:
as §1, §2

The subject of test [8] is SW-1271. Kind of test: SCLC cell viability assay (CellTiter-Glo), SW-1271. Conditions: SW1271, 72 h; SW-1271, 3 days; read-out: IC50, 50% cell growth inhibition. As to the method: as §1, §2
In test [9] the test system is SBC-5. Kind of test: SCLC cell viability assay (CellTiter-Glo), SBC-5. The following applies: Homo sapiens, 72 h; SBC-5, 3 days; read-out: IC50, 50% cell growth inhibition. As to the method:
as §1, §2

Test [10] relates to SCLC cell lines. Kind of test: SCLC cell viability assay, summary over the cell line panel. The following applies: all SCLC cell lines tested, TOP1 inhibitor alone. As to the method: as §1
as §2, with “software. […]” for “software.”

`CC[C@@]1(O)C(=O)OCc2c1cc1n(c2=O)Cc2c-1nc1cc3c(cc1c2C12CC(N)(C1)C2)OCO3` [Example 1G, (7S)-14-(3-aminobicyclo[1.1.1]pentan-1-yl)-7-ethyl-7-hydroxy-2H,10H-[1,3]dioxolo[4,5-g]pyrano[3′,4′:6,7]indolizino[1,2-b]quinoline-8,11(7H,13H)-dione]: the concentration for a half-maximal effect (EC50) in test [1] was 0.57 nM; in [2] it was 0.5 nM. Also, the IC50 in test [3] was 1.68 nM; in test [4] it was 0.2 nM; in test [5], 5.71 nM; in test [6] it was 21.6 nM; in test [7] it was 6.28 nM; in test [8] it was 2.49 nM. Also, the 50% inhibitory concentration (IC50) in test [9] worked out at 1.26 nM. In addition, the “IC50 in all cell lines” value in test [10] is on record as “sub-to low-nM”.
